Measurements taken from patent publication US20250136574A1, “SELECTIVE AGENTS TARGETING MYCOBACTERIUM TUBERCULOSIS” (priority 2022, published 2025).
Like-named read-outs stand apart in the source and are kept apart here.

Legend:
[1] = tested on: human plasma protein; assay: Human plasma protein binding; conditions: human plasma protein binding
[2] = PBS solubility; conditions: highest concentration with no detectable precipitate; phosphate-buffered saline
[3] = Plasma stability, human; conditions: n = 1
[4] = Plasma stability, mouse; conditions: n = 1
[5] = Liver microsomal stability, human; conditions: human liver microsomes, n = 1
[6] = Liver microsomal stability, mouse; conditions: mouse liver microsomes, n = 1
[7] = microsomes
[8] = microsomes; remark: listed apart in the source
[9] = in vitro; conditions: human, plasma
[10] = Human plasma protein binding; conditions: human, plasma

SMILES: CC(=O)CC(c1ccccc1)c1c(O)c2ccccc2oc1=O (stereo not shown) [warfarin]
- plasma protein binding [1]: >99.9%

SMILES: CCCCCCC#Cc1cncc(-c2nnc(SCc3cc([N+](=O)[O-])cc([N+](=O)[O-])c3)n2C2CC2)c1.Cl
- PBS solubility [2]: 3.1 µM
- plasma stability t1/2 (min), human [3]: >480; >480 min
- plasma stability t1/2 (min), mouse [4]: >480; >480 min
- liver microsomal stability t1/2 (min), human [5]: 3.0 min
- liver microsomal stability t1/2 (min), mouse [6]: 5.9 min

SMILES: CCCCCCC#Cc1cncc(-c2nnc(SCc3ccc([N+](=O)[O-])o3)n2C2CC2)c1 [drawing 141]
- liver microsomal stability CLint (μL/min/mg), human [7]: 470 µL/min/mg
- liver microsomal stability CLint (μL/min/mg), mouse [8]: 546 µL/min/mg
- fraction unbound [9]: < 0.001
- PBS solubility [2]: 3.1 µM
- plasma stability t1/2 (min), human [3]: 259 min
- plasma stability t1/2 (min), mouse [4]: 238 min
- liver microsomal stability t1/2 (min), human [5]: 1.9 min
- liver microsomal stability t1/2 (min), mouse [6]: 2.5 min

SMILES: CCCCCCC#Cc1cncc(-c2nnc(SCc3cc([N+](=O)[O-])cc([N+](=O)[O-])c3)n2C)c1 [drawing 140]
- PBS solubility [2]: <1.6 µM
- plasma stability t1/2 (min), human [3]: >480; >480 min
- plasma stability t1/2 (min), mouse [4]: >480; >480 min
- fraction unbound [10]: < 0.001
- liver microsomal stability CLint (μL/min/mg), human [5]: 357 µL/min/mg
- liver microsomal stability t1/2 (min), human [5]: 3.9 min
- liver microsomal stability CLint (μL/min/mg), mouse [6]: 287 µL/min/mg
- liver microsomal stability t1/2 (min), mouse [6]: 4.8 min
